Experimental data taken from patent publication US11358931B2, “Selective androgen receptor modulators (SARMs) and uses thereof” (priority 2007, dated 2022).
“Also recorded” adds a separate entry of the source.

Test system: ovariectomized mature female rat
Experiment: In vivo assay, ovariectomized mature female rats (12 weeks)
Settings: for uterine weight to length ratio versus OVX controls: 0.03-3 mg/kg/day PO; for uterine weight to length ratio versus sham levels: high dose (3 mg/kg); for increase of gastrocnemius muscle mass / mean change in body weight: maximally effective dose 0.3 mg/kg PO; for clitoral weight, activity versus testosterone / clitoral gland weight versus sham: mid dose (0.3 mg/kg); for clitoral gland weight versus sham: 0.3 mg/kg
Description: In animal models of osteoporosis, androgens increase bone density and strength in male rats (Wakely et al., J Bone & Mineral Research 6: 325-330 (1991) and Vandenput et al., Calcified Tissue International 70: 170-175 (2002)) and female rats (Tobias et al., Am J Physiology 267: E853-E859 (1994) and Coxam et al., Bone 19: 107-114 (1996)). The ovariectomized mature female rat model was used to assess the effects of orally administered compounds provided herein, such as Compound 102, on bone as well as other efficacy and side-effect endpoints including muscle mass, fat mass and clitoral gland weight.
In this assay, approximately three-month old rats were acclimated in a vivarium for one week. After acclimation, rats were anesthetized with Avertin and the ovariectomy (OVX) was performed using the dorsal approach. For the sham procedure, the surgical procedure was conducted per protocol, and the ovaries exteriorized but not removed. After recovery, no further experimental manipulations were performed for seven weeks, at which point the rats were scanned by dual energy x-ray absorptiometry and sorted into experimental groups based upon femoral bone mineral content (BMC). Three dosages of Compound 102 were tested (0.03, 0.3 and 3 mg/kg/day PO). For comparison, ostarine, a known non-steroidal SARM, was tested at the same dosages (0.03, 0.3 and 3 mg/kg/day PO). In addition, reference compounds estradiol and testosterone were administered. Estradiol was administered subcutaneously to one ovariectomized group at a dose of 0.1 mg/kg/day and testosterone propionate was administered subcutaneously to another ovariectomized group at a dose of 1 mg/kg/day.
Treatment continued once daily for 12 weeks, at which point animals were euthanized and tissues were collected for further analysis. Animals received subcutaneous injections of fluorochrome markers for bone histomorphometric analysis. Alizarian Red S was prepared as a 3% solution and given at a dose of 30 mg/kg at the time of the baseline scan. Calcein was administered 10 days and 3 days prior to necropsy.
After the 14th dose, approximately 250 μL venous blood was collected via percutaneous jugular puncture from the rats at 0, 0.5, 1, 2, 4 and 6 hours post-dosing. The blood samples were collected into lithium-heparin tubes (Becton Dickinson, Franklin Lakes, N.J.). Plasma fractions were collected for pharmacokinetic analysis. Approximately 24 hours after the last dose, rats were sacrificed by cardiac exsanguination, and blood was collected into serum separator tubes (Becton Dickinson), and the gastrocnemius muscle, plantaris muscle, uterus, clitoral glands, clitoris and inguinal fat pads were isolated, blotted and weighed individually. Uterine weight measurements can be inaccurate in surgically ovariectomized rats due to the potential loss of uterine tissue at the tips of the uterine horns during removal of the ovaries. To minimize this variability, the length of the uterine horns was measured and the uterine weight was reported normalized to uterine length. The left femur and lumbar vertebra L5 were wrapped in saline-soaked gauze and stored at −20° C. for biochemical analysis. The right femur and lumbar vertebrae L3-L4 were collected and stored in 70% ethanol for histomorphometry. The right tibia was collected in formalin for histological analysis. The left tibia was collected on dry ice and stored at −20° C. for measurement of alkaline phosphatase activity.
Compound 102 and ostarine individually were formulated in a solution containing 5% Tween-80 polysorbate, 90% PEG-400 polyethylene glycol, and 5% polyvinylpyrrolidone K30. The mixture was stirred and sonicated in a water bath for 30 minutes until the compound dissolved into a solution. After sonication, 1% carboxymethyl cellulose (CMC) in water was added to the solution in a 9:1 ratio (9 parts CMC/water solution to 1 part PEG-400/Tween-80/PVP). Compound 102 and ostarine were administered orally in a volume of 4 mL/kg. […]

[1] = OVX rats, high dose (3 mg/kg/day PO)
[2] = OVX rats, low dose (0.03 mg/kg/day PO)
[3] = OVX rats, 12 weeks, 3-point bending

SMILES | uterine weight to length ratio versus OVX controls | uterine weight to length ratio versus sham levels (OVX rats) | clitoral gland weight [1] | clitoral weight [1] | increase of uterine weight to length ratio compared with ostarine (OVX rats, low and mid dose, P<0.01) | clitoral gland weight [2] | clitoral weight [2] | uterine weight to length ratio versus sham operated controls [2] | increase of gastrocnemius muscle mass (OVX rats) | mean change in body weight (OVX rats) | clitoral weight, activity versus testosterone (OVX rats) | clitoral gland weight versus sham (OVX rats) | uterine weight to length ratio versus sham operated controls (OVX rats, mid dose (0.3 mg/kg/day PO)) | alkaline phosphatase activity from isolated tibiae (OVX rats, 12 weeks) | whole femur bending stiffness [3] | whole femur bending strength [3] | cortical bone area (OVX rats, 12 weeks, histomorphometry) | serum osteocalcin (OVX rats, 12 weeks, versus vehicle-treated OVX controls) | body weight gain from baseline compared to vehicle (OVX rats, 12 weeks, Compound 102/ostarine 0.03, 0.3, 3 mg/kg/day PO, testosterone propionate 1 mg/kg/day s.c.) | inguinal fat pad weight (OVX rats, 12 weeks, any dose, estradiol 0.1, testosterone propionate 1 mg/kg/day s.c.)
N#Cc1ccc(N2CCC[C@@H]2[C@@H](O)C(F)(F)F)cc1C(F)(F)F [Compound 102, R,R-4-(2-(1-Hydroxyl-2,2,2-trifluoroethyl)-pyrrolidinyl)-2-trifluoromethyl-benzonitrile] | increased uterine weight to length ratio above estrogen deficient OVX controls in a dose dependent manner | significantly (P<0.01) increased above sham levels | increased clitoral gland weight | significantly increased clitoral weight | significantly less than ostarine | Neither Compound 102 nor ostarine affected | did not affect clitoral weight | significantly (P<0.01) less than sham operated controls | 17% | +66 grams | significantly less activity versus testosterone | only slightly above the sham level; also recorded: did not quite achieve statistical significance versus sham | significantly (P<0.01) less than sham operated controls | – | – | – | – | – | – | –
C[C@](O)(COc1ccc(C#N)cc1)C(=O)Nc1ccc(C#N)c(C(F)(F)F)c1 [ostarine] | increased uterine weight to length ratio above estrogen deficient OVX controls in a dose dependent manner | significantly (P<0.01) increased above sham levels | increased clitoral gland weight | significantly increased clitoral weight | – | Neither Compound 102 nor ostarine affected | did not affect clitoral weight | significantly (P<0.01) less than sham operated controls | 10% | +65 grams | not significantly different from testosterone | only slightly above the sham level; also recorded: statistically significant (P<0.05) | – | significantly increased | slightly more effectively than Compound 102 | slightly less effectively than Compound 102 | increased cortical bone area | significantly suppressed | significantly increased weight gain compared to vehicle at the mid and high dose levels; also recorded: at the low dose there was no significant difference from vehicle | neither Compound 102 nor ostarine significantly affected inguinal fat pad weight at any dose
